From patent US20100203044A1, “DR6 ANTAGONISTS AND USES THEREOF IN TREATING NEUROLOGICAL DISORDERS” (priority 2006, published 2010)
Entries after “also recorded” stand apart in the source; their conditions may differ. Residues, ends and D or L forms follow the SMILES beside them. *: point of attachment. Cbz = O=C(OCc1ccccc1)*; CH2F = FC*

Key:
[1] = cited from earlier work
sensory neurons = test: NGF deprivation assay in Campenot Chambers, local sensory axonal degeneration; assay type: cell-based, mouse; settings: for sensory axonal degeneration induced by NGF withdrawal: 30 μg/ml in axonal compartments with anti-NGF, 0, 6 and 24 hours
Protocol: Materials and methods used to generate the data shown in this figure are as follows. To examine whether ligand is required for DR6 function in sensory axonal degeneration, a compartmented culture analysis of sensory axon growth and degeneration was carried out as follows. A Campenot nerve cell chamber system was used to isolate neuronal processes (axons) from the cell bodies in different compartments (separate fluid environments), analogous to neuronal cell bodies in one location of the nervous system projecting their axons to a distal target in another location. The assay was carried out as originally described by Campenot (Campenot et al., J. Neurosci. 11(4): 1126-39 (1991)) with the following modifications. Briefly, 35-mm tissue culture dishes were coated with PDL/Laminin and scratched with a pin rake (Tyler Research) to generate tracks, as illustrated for example in FIGS. 1 and 4 of Campenot et al., supra.
A drop of culture medium (Neurobasal medium with B27 supplement, 25 ng/ml of NGF, and 4 g/L of methylcellulose) was placed on the scratched substratum. A Teflon divider (Tyler Research) was seated on silicone grease and a dab of silicone grease was placed at the mouth of the center slot. Dissociated sensory neurons derived from E12.5 mouse DRGs were suspended in methylcellulose-thickened medium and loaded into a disposable sterile syringe fitted with a 22-gauge needle. This cell suspension was injected into the center slots of each compartmented dish under the dissecting microscope. The neurons were allowed to settle overnight. […]
To trigger local axonal degeneration, NGF-containing medium from axonal compartments was substituted with neurobasal medium with an NGF blocking antibody (anti-NGF, Genentech, Inc., 20 ug/ml). Zero hours, 6 hours, or 24 to 48 hours following NGF deprivation, sensory neurons were fixed in 4% PFA for 30 minutes at room temperature and processed for immunofluorescence staining with axonal marker TUJ-1 (Covance, 1:500 dilution) to visualize degenerating axons by fluorescence microscopy (FIG. 11B) (as above described in Example 7). […]
To examine whether ligand is required for DR6 function in axonal degeneration program triggered by NGF withdrawal, 30 μg/ml of hDR6-ECD-Fc immunoadhesin protein (described in EXAMPLE 3 above) or 30 μg/ml of a control Fc (Genentech, Inc.) was included together with anti-NGF treatment in axonal compartments of Campenot Chambers. Zero to 24 hours after NGF deprivation, axons in Campenot Chambers were fixed with 4% PFA/PBS and visualized by immuno-fluorescence staining with TUJ-1 (1:500, Covance)/secondary antibody conjugated to a fluorescence group Alexa 488 (Molecular Probes, BD) (FIG. 11B). […]

commissural neurons = test: dorsal spinal cord (commissural explant) survival assay; assay type: cell-based, rat; settings: for commissural axon degeneration: 48 hours, hDR6-ECD-Fc at 30 μg/ml and 10 μg/ml
Protocol: To examine functional roles of DR6 in axonal degeneration and programmed cell death of commissural neurons, an RNAi-based dorsal spinal cord survival assay (Kennedy et al., Cell, 78:425-435 (1994); Wang et al., supra, 1999) was conducted (see FIG. 3). E13 rat or E11.5 mouse embryos were placed in L15 medium (Gibco) and siRNAs (IDT) together with green fluorescent protein (“GFP”)-encoding plasmids were injected into the neural tubes. The siRNAs and plasmids were then delivered to dorsal progenitor cells by electroporation. Dorsal spinal cord explants were dissected out, embedded into a 3D-collagen gel matrix, and cultured in Opti-MEM/F12 medium (Invitrogen) with recombinant netrin-1 ([…]) and 5% horse serum (Sigma) at 37° C. in a 5% CO2 environment. Within 16 hours in response to chemo-attractant netrin-1, commissural axons grow out of the explant into the collagen matrix gel (Kennedy et al., supra, 1994). Commissural axons are visualized by GFP fluorescence by observation using an inverted microscope.
Materials and methods used to generate the data shown in this figure are as follows. To investigate physiological roles of DR6 receptor in axonal degeneration and programmed cell death of commissural neurons, a dorsal spinal cord survival assay according to protocols known in the art (Kennedy et al., Cell, 78:425-435 (1994); Wang et al., Nature, 401:765-769 (1999)) was performed (with data shown in FIG. 4B). E13 rat embryos were placed in L15 medium (Gibco) and injected into their neural tubes with the following siRNA constructs (FIG. 4B): […]
A dorsal spinal cord survival assay (as described in Example 2 above) was conducted using anti-DR6 antibodies. Microscopic observation (using green fluorescence channel for GFP) was employed to visualize commissural axons. […] To visualize GFP-expressing commissural axons, pictures were taken on the Axiovert 200 Zeiss inverted microscope (in green fluorescence channel for GFP) using AxioVision40 Release 4.5.0.0 SP1 (March 2006) computer software from Carl Zeiss Imaging Solutions. […]

[2] = test system: DR6-AP binding sites on BAX null sensory axons; test: in situ DR6-AP sensory axon binding assay after NGF deprivation; assay type: cell-based, mouse; settings: BAX null sensory axons E12.5; BACE inhibitor at 1 uM
Protocol: For the in situ DR6-AP sensory axon binding assay, either wild-type or Bax null sensory explants were cultured in Neurobasal medium/B27 (Invitrogen) as outlined in the Examples 7-8 above, with 50 ng/ml NGF (Roche). Two days post-plating, DRG explants were either left untreated or deprived from NGF as described above in Examples 7-8. Bax inhibitory peptide was added where indicated on FIG. 12B (10 uM, Bax-V5, Tocris). Twelve hours post-NGF deprivation, DRG explants were washed twice with the binding buffer (HBSS, Gibco Cat. No. 14175-095, with 0.2% BSA, 0.1% NaN3, 5 mM CaCl2, 1 mM MgCl2, 20 mM HEPES, pH=7.0). AP binding assay was then carried out by making a 1:1 mixture of DR6-AP conditioned medium and the binding buffer (or control AP conditioned medium and the binding buffer), which was applied directly to DRG explants in 8-well culture slides (Becton, Dickinson and Company) and incubated for 90 minutes at room temperature.
Following the incubation, unbound DR6-AP proteins were washed away by rinsing DRG explants five times with the binding buffer. DRG explants were then fixed with 3.7% formaldehyde diluted in PBS, for 12 minutes at room temperature. The remaining formaldehyde was removed by rinsing DRG explants 3 times with HBS buffer (20 mM HEPES pH=7.0, 150 mM NaCl). Endogenous AP activity was blocked by heat inactivation at 65° C. in HBS buffer for 30 minutes. […]

Compound: CC12CC3CC(C)(C1)CC(N)(C3)C2 [Memantine]
- symptoms across SIB, ADCS-ADL19, CIBIC-Plus and NPI outcome measures ([1]; human, in vivo): improvement and stabilization of symptoms
- outcome measures SIB, ADCS-ADL19, CIBIC-Plus, NPI, BGP versus placebo ([1]; patients taking stable doses of Donepezil): benefit over placebo

Compound: CC[C@H](C)[C@H](NC(=O)OCc1ccccc1)C(=O)N[C@@H](CCC(=O)OC)C(=O)N[C@H](C(=O)N[C@@H](CC(=O)OC)C(=O)CF)[C@@H](C)O [caspase-8 inhibitor, Z-IETD-FMK, reference compound] (Cbz-IE(OMe)TD(OMe)-CH2F)
- sensory axonal degeneration after NGF deprivation (sensory neurons; neurons cultured 5 days, then 24 hours, SP 600125 1 uM, Z-IETD-FMK 10 uM, Z-DEVD-FMK 10 uM): delayed

Compound: (L)-HIV-TAT48-57-PP-JBD20 [L-JNK-I, reference compound]
- axonal degeneration of commissural neurons (commissural neurons; JNK signaling blocked by peptide inhibitor at 1 μM): partially blocked axonal degeneration

Compound: OM99-2 [reference compound]
- sensory axonal degeneration in the absence of NGF (sensory neurons; BACE inhibitor at 1 uM): blocked
- disappearance of DR6-AP binding sites from sensory axons following NGF withdrawal [2]: can block the disappearance of DR6-AP binding sites

Compound: hDR6-ECD-Fc: human DR6 extracellular domain sequence fused with Fc, SEQ ID NO: 4
- sensory axonal degeneration induced by NGF withdrawal (sensory neurons): delayed sensory axonal degeneration; also recorded: delayed the onset of axonal degeneration
- sensory axonal degeneration induced by NGF withdrawal (sensory neurons; listed as DR6-Fc): can be delayed
- commissural axon degeneration (commissural neurons): delayed
- commissural axon degeneration (commissural neurons; listed as DR6-Fc): can be delayed
